Measured values published in US12570648B2, “6,7-dihydro-5H-pyrido[2,3-c]pyridazine derivatives and related compounds as Bcl-xL protein inhibitors and pro-apoptotic agents for treating cancer” (LES LABORATOIRES SERVIER, priority 2019, dated 2026).

Key:
[1] = test system: lymphoid malignancies; conditions: clinical studies; cited from earlier work
[2] = test system: T-ALL patient derived xenograft models; conditions: cited from earlier work
[3] = test system: lymphocyte proliferation; conditions: in vitro; cited from earlier work
[4] = test system: allogeneic T-cell; conditions: in vitro; cited from earlier work
[5] = test system: animal models of arthritis and lupus; conditions: mice; cited from earlier work
[6] = test system: circulating platelets; experiment: Pharmacodynamics: circulating platelets in MOLT-4-grafted mice; assay type: in vivo, female NOD SCID mice; conditions: after treatment discontinuation (data not shown)
Method: For pharmacodynamics studies, when tumors reached the appropriate volume, mice were randomized (3 animals per group) using Easy stat software. […] Tumor samples were collected 6 h after dosing and lysed (10 mM HEPES pH 7.4, 142.5 mM KCl, 5 mM MgCl2, 1 mM EDTA, 1% NP40, protease and phosphatase inhibitors cocktails—Calbiochem). Cleared lysates were prepared for immunodetection of cleaved PARP and Caspase 3 by using the MSD apoptosis panel whole cell lysate kit (MSD) in 96-well plates according to manufacturer's instructions, and were analyzed on the QuickPlex SQ 120. Whole blood samples were analyzed on the Hematology Analyzer Coulter Ac⋅T diff (Beckman Coulter).

[7] = test system: MOLT-4 xenografts; experiment: Tumor regression study in MOLT-4 xenografts; assay type: in vivo, female NOD SCID mice; conditions: 5 mg/kg IV
Method: The in vivo therapeutic and pharmacodynamic effects of Bcl-xL-targeting small molecules were determined in MOLT-4 T-cell Acute Lymphoblastic Leukemia (T-ALL) model upon intravenous (IV) or oral (PO) administration.
MOLT-4 cells (ATCC No. CRL-1582) were cultured in RPMI supplemented with 10% FBS. Cells were re-suspended in 50% matrigel (BD Biosciences) and 0.1 mL containing 5×10^6 cells was subcutaneously inoculated into the right flank of female NOD SCID mice (Charles River). For efficacy studies, when tumors reached the appropriate volume, mice were randomized (7 animals per group) using Easy stat software. […] Mice body weight was monitored three times a week and tumor size was measured using electronic calipers. Tumor volume was estimated by measuring the minimum and maximum tumor diameters using the formula: (minimum diameter)^2(maximum diameter)/2. The last day with at least half of control animals still present in the study (day 31), tumor growth inhibition was calculated using the formula: […]
Response was evaluated as follows: CR (Complete Response) if tumor size was <25 mm^3 for at least three consecutive measurements, PR (Partial Response) if tumor size was comprised between 25 mm^3 and half of the starting size for at least three consecutive measurements. Mice were sacrificed at the first measurement for which tumor volume exceeded 2000 mm^3 or at the first signs of animal health deterioration.

[8] = test system: H146 cells; experiment: H146 cell viability using MTT assay; assay type: cell-based; conditions: Homo sapiens, NCI-H146, 48 h exposure
In short: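 IC50 comes from four-parameter fits of optical density at 540 nm. Readout used 4 h MTT reduction followed by overnight SDS/HCl solubilisation, after 48 h compound exposure across nine 3.16-fold dilutions in triplicate. Culture medium was RPMI 1640 with 10% heat-inactivated FBS, antibiotics and L-glutamine.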

[9] = target: GST(1-218)-(FACTOR_XA)-hsBCLXL(2-209) (Homo sapiens (Human), UniProt Q07817); experiment: Fluorescence polarisation assay; assay type: binding
Chain of GST(1-218)-(FACTOR_XA)-hsBCLXL(2-209) (Q07817 other isoform, or with tags, fused parts or gaps): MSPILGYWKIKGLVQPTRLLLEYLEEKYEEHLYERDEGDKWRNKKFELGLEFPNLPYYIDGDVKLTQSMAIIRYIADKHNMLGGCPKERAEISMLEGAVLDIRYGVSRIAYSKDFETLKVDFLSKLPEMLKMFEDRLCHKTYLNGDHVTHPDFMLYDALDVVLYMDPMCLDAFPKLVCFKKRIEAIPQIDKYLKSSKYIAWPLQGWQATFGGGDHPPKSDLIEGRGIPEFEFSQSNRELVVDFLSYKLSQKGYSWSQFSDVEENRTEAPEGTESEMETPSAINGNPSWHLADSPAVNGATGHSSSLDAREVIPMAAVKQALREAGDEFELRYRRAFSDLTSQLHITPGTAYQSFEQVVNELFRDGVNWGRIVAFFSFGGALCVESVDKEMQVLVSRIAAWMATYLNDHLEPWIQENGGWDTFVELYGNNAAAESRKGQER
Method: Fluorescence polarization measures the rotation of a fluorescing species in solution, the larger the molecule the more polarized the fluorescence emission.
(GST UniProtKB® primary accession number P08515 and BCLXL UniProtKB® primary accession number Q07817-1), • resulting in an increase in anisotropy. If a compound is added which competitively binds to the same site as the probe, thereby releasing it, anisotropy decreases due to the increased amount of free probe.
An 11-point serial dilution of each compound was prepared in DMSO, the final buffer conditions were 10 mM 4-(2-hydroxyethyl)-1-piperazineethanesulfonic acid [HEPES], 150 mM NaCl, 0.05% Tween 20, pH 7.4 and 5% DMSO. The final protein concentration in the assay was 20 nM with the fluorescent probe present at 10 nM. […] 1; 37 (WebServer issue): W441-W445.

[10] = target: His-His-(EK)-hsBCLXL(2-197)[N197C] (Homo sapiens (Human), UniProt Q07817, N197C); experiment: Fluorescence quenching assay; assay type: binding; conditions: 1 nM Cy5-labelled protein, 400 nM PUMA peptide, 2 hours at 23° C.; KI determined from IC50
Chain of His-His-(EK)-hsBCLXL(2-197)[N197C] (Q07817 2-197 N197C): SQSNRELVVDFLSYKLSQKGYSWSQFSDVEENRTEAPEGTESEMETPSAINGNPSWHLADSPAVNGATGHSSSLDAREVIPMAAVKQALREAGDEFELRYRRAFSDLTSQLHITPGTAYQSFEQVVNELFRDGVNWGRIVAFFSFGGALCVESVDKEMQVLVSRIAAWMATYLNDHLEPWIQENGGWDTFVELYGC
In short: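 Ki values converted from IC50s, measured as fluorescence increase (Ex 620/Em 680 nm) after 2 h at 23° C. Compounds were titrated over 11 points against 1 nM Cy5-BCL-xL and 400 nM quencher-tagged PUMA peptide in pH 7.4 HEPES (10 mM), 150 mM NaCl, 0.05% Tween 20, 5% DMSO.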

Compound | antitumor activity [1] | activity [2] | lymphocyte proliferation [3] | allogeneic T-cell activation, proliferation, and cytotoxicity [4] | disease severity [5] | platelets loss recovery [6] | % CR ([7]; Q3D6) [%] | % PR ([7]; Q3D6) [%] | % TGI (d31) ([7]; Q3D6, day 31) [%] | IC50 [8] [nM] | Ki [9] [nM] | Ki [10] [nM]
CC1(C)CCC(c2ccc(Cl)cc2)=C(CN2CCN(c3ccc(C(=O)NS(=O)(=O)c4ccc(N[C@H](CCN5CCOCC5)CSc5ccccc5)c(S(=O)(=O)C(F)(F)F)c4)cc3)CC2)C1 [ABT-263] | objective antitumor activity | promising activity |  |  |  |  |  |  |  |  |  | 
CN(C)CC[C@H](CSc1ccccc1)Nc1ccc(S(=O)(=O)NC(=O)c2ccc(N3CCN(Cc4ccccc4-c4ccc(Cl)cc4)CC3)cc2)cc1[N+](=O)[O-] [ABT-737] |  | promising activity | potent inhibition of lymphocyte proliferation | prevented allogeneic T-cell activation, proliferation, and cytotoxicity | significant decrease in disease severity |  |  |  |  |  |  | 
Cc1c(Nc2nc3ccccc3s2)nnc2c1CCCN2c1ccc(-c2cnn(CC34CC5CC(CC(C5)C3)C4)c2C)c(C(=O)O)n1 [Example 24] |  |  |  |  |  | platelets loss was recovered after treatment discontinuation | 0 | 71.4 | 78.7 | 32.7 | < 1 | 0.008
